Results taken from patent US20100285476A1, “METHODS OF IDENTIFYING HISTONE DEACETYLASE INHIBITORS USEFUL FOR NEUROLOGICAL DISORDERS” (priority 2007, published 2010).

Assays:
[1] = test system: HDACs 1-10; assay: Panel of individual purified HDAC enzymes (HDACs 1-10); format: biochemical, human
[2] = test system: frataxin (FXN1) mRNA; assay: Frataxin mRNA expression in lymphocytes by quantitative RT-PCR; conditions: for frataxin mRNA expression, result in words / Fold Increase FXN1 Expr. (10 μM): 10 μM; for frataxin mRNA expression, result in words: human lymphocytes; for Fold Increase FXN1 Expr. (10 μM): human lymphocytes of normal donors, vs vehicle control
[3] = molecular target: HDAC3 (Homo sapiens, UniProt O15379); assay: HDAC enzyme inhibition assay, purified HDAC3; format: biochemical; conditions: for Relative Inhibitory Activity HDAC 1/3: IC50 for HDAC1 divided by IC50 for HDAC3; for Relative Inhibitory Activity HDAC 2/3: IC50 for HDAC2 divided by IC50 for HDAC3; for Relative Inhibitory Activity HDAC 5/3: IC50 for HDAC5 divided by IC50 for HDAC3; for IC50: purified HDAC3
[4] = molecular target: HDAC2 (Homo sapiens, UniProt Q92769); assay: HDAC enzyme inhibition assay, purified HDAC2; format: biochemical
[5] = molecular target: HDAC5 (Homo sapiens, UniProt Q9UQL6); assay: HDAC enzyme inhibition assay, purified HDAC5; format: biochemical
[6] = test system: HepG2 cells; assay: Growth inhibition of HepG2 cells (CellTiter 96 AQueous One Solution); format: cell-based, human; conditions: for HepG2/HDAC3 (estimated therapeutic index): HepG2 growth IC50 divided by IC50 for HDAC3; for IC50: Homo sapiens, 72 hours; for IC50 / cytotoxicity, result in words: HepG2 cells
[7] = molecular target: HDAC1 (Homo sapiens, UniProt Q13547); assay: HDAC enzyme inhibition assay, purified HDAC1; format: biochemical
Chain of HDAC1 (Q13547 whole entry): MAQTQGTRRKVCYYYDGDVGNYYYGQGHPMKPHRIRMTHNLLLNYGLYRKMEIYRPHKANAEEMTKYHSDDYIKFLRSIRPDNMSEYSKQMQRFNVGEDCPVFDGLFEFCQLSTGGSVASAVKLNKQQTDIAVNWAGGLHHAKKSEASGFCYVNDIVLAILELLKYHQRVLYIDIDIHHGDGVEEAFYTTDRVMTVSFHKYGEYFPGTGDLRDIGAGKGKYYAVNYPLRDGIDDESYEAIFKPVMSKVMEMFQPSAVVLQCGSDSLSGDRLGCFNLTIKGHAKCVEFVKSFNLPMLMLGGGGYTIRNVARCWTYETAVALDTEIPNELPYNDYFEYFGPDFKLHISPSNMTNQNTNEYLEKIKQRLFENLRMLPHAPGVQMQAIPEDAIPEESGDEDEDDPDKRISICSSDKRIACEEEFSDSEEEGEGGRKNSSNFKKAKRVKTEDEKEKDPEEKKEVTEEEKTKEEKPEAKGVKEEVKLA

Chain of HDAC3 (O15379 whole entry): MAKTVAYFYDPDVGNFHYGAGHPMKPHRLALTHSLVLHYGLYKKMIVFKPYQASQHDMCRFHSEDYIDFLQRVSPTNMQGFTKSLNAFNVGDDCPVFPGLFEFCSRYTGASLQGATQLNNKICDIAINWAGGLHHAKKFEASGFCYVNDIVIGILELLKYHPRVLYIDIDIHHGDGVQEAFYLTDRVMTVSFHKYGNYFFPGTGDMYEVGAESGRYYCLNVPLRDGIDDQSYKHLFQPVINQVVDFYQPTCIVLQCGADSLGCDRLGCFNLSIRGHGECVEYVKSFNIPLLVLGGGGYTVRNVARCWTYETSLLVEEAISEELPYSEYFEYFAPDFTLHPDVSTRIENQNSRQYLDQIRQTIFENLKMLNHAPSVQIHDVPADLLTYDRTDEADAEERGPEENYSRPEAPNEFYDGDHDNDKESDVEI
Chain of HDAC3 (Q9Y618 395-489 partner limits assumed): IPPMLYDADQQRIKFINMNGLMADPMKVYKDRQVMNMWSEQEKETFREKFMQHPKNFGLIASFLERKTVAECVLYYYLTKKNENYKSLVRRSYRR
Chain of HDAC5 (Q9UQL6 whole entry): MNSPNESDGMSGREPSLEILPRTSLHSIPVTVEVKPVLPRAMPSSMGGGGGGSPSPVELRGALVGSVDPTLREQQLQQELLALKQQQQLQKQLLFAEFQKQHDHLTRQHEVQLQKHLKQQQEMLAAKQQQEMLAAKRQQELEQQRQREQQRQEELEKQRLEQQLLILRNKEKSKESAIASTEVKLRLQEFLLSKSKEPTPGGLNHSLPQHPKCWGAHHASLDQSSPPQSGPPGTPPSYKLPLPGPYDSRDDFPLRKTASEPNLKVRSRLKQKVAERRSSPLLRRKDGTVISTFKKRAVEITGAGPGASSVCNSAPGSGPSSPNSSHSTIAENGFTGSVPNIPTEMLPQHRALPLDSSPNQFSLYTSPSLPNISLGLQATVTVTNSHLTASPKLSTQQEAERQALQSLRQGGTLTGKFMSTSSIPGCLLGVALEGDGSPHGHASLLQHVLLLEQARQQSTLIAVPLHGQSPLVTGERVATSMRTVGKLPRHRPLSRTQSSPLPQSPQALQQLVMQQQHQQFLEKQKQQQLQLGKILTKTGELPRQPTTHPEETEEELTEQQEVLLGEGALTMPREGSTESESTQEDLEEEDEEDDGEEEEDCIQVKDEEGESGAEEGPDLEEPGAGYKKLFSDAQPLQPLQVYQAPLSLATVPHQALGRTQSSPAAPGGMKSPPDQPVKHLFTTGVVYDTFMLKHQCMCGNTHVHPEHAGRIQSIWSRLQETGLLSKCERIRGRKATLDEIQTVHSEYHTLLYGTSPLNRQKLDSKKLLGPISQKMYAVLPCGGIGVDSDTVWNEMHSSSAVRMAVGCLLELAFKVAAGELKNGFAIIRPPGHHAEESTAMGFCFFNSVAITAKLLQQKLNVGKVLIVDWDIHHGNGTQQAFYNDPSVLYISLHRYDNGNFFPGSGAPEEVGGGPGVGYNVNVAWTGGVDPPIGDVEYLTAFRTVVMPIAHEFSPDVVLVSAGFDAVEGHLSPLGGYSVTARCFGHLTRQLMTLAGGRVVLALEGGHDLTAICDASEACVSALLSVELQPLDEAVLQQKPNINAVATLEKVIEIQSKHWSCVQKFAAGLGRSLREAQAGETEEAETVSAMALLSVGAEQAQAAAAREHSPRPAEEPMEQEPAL
Chain of HDAC2 (Q92769 whole entry): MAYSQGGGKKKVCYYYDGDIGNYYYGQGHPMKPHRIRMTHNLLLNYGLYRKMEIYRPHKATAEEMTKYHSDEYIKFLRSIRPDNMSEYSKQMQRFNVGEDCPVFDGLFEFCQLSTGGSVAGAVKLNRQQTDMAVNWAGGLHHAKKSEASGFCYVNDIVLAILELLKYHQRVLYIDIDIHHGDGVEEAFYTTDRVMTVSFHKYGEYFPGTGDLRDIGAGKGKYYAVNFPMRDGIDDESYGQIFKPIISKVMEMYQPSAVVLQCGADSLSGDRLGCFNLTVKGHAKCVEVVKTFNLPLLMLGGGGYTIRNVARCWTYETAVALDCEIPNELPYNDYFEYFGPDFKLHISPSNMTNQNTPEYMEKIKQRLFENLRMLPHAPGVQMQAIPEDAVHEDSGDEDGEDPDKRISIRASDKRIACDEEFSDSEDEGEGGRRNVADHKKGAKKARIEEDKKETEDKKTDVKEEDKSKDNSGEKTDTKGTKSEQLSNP

SMILES	inhibition of all HDACs tested, result in words [1]	maximum observed increase of frataxin expression ([2]; 1-30 μM, normal lymphocytes, compared to vehicle control (FIG. 1))	frataxin expression, result in words ([2]; normal lymphocytes or patient lymphocytes, all concentrations tested (1-30 μM))	HDAC3 inhibition, result in words [3]	Relative Inhibitory Activity HDAC 1/3 [3]	Relative Inhibitory Activity HDAC 2/3 [3]	Relative Inhibitory Activity HDAC 5/3 [3]	IC50 [3]	IC50 [4]	IC50 [5]	HepG2/HDAC3 (estimated therapeutic index) [6]	IC50 [6]	IC50 [7]	frataxin mRNA expression, result in words [2]	Fold Increase FXN1 Expr. (10 μM) [2]	cytotoxicity, result in words [6]
CC(/C=C/C(=O)NO)=C\[C@@H](C)C(=O)c1ccc(N(C)C)cc1 [TSA, trichostatin A]	Sub-micromolar inhibition	–	–	–	–	–	–	–	–	–	–	–	–	–	–	–
Cc1ccc(NC(=O)CCCCCC(=O)Nc2ccccc2N)cc1 [RGFA8, N^1-(2-aminophenyl)-N^7-p-tolylheptanediamide]	–	about 16 fold	increased expression of frataxin	–	–	–	–	–	–	–	–	–	–	–	–	–
Cc1ccc(NC(=O)CCCCCC(=O)N2CCN(c3ccccc3)CC2)cc1 [Compound 6]	–	–	–	did not show strong inhibition of HDAC3	0.45	0.65	2.0	9.1 µM	5.9 µM	18.2 µM	12.3	112 µM	4.2 µM	not active to increase frataxin expression	none	–
Cc1ccc(NC(=O)CCCCCC(=O)NO)cc1 [Compound 21]	–	–	–	strong HDAC3 inhibitory activity	3.7	9.1	5.1	0.32 µM	2.92 µM	1.63 µM	31	10 µM	1.19 µM	effective to increase frataxin expression	2.0 Fold	relatively low cytotoxicity
Nc1ccccc1NC(=O)c1ccc(CNC(=O)OCc2cccnc2)cc1 [MS-275, reference compound]	–	–	–	–	–	–	–	–	–	–	–	–	–	did appreciably increase frataxin mRNA expression	–	may be too cytotoxic for long-term use
